{
  "source": "patent US9662305B2",
  "about": "(REVIVE THERAPEUTICS INC., priority 2012, dated 2017)",
  "key": {"[1]": {"tested_on": "hyperuricaemic mice", "assay": "Hyperuricaemic (potassium oxonate) mice: serum and urinary uric acid, urinary creatinine", "type": "in vivo, mouse", "procedure": "A total of 45 C57/Black 6 mice in 9 groups (n=5) were studied for a period of one week. The drugs were dissolved or dispersed in distilled water immediately prior to dosing and administered in a volume of 15 mL/kg by gastric gavage. The volume of drug administered was based on the body weight determined on the day of dosing. […] Whole blood and urine samples were collected 1 h after final drug administration on the seventh day. […] The serum and urine were stored at −80° C. until assayed. The uric acid levels in serum and urine were determined by the phosphotungstic acid method.^54 The creatinine levels in serum were determined spectrophotometrically using standard diagnostic kits."}, "[2]": {"tested_on": "Male C57/BL/6 mice", "assay": "Monosodium urate crystal-induced peritoneal inflammation in mice", "type": "in vivo, mouse", "settings": "for decrease of mean neutrophil influx for every increase of 1 μmol/kg of the drug: single drug i.p., MSU crystals 0.5 mg i.p., logarithmic model", "procedure": "Colchicine was dissolved in PBS and administered at a dose of 0.05, 0.5 and 5 μmol/kg in a similar fashion. […] The mice were euthanised after 6 hours with CO2 and the peritoneal cells removed by lavage with 10 mL of cold PBS. The lavage fluid was analysed for neutrophil infiltration using a cytospin and Diff-Quick staining. The concentrations of IL-1β and IL-6 in the lavage supernatants was determined using an R&D Systems Quantikine mouse immunoassay."}, "[3]": {"tested_on": "subjects with acute gout flares", "assay": "Open-label, active-controlled clinical trial in acute gout flares", "settings": "for proportion of subjects with ≧50% reduction in target joint pain score from baseline at 72 hours post-dose: PI-NRS", "procedure": "The primary efficacy endpoint is the proportion of patients who responded to treatment. Treatment responders are defined as a ≧50% reduction in target joint pain score from baseline at 72 hours post-dose without using rescue drug. The target joint pain score is an 11-point Pain Intensity Numeric Rating Scale (PI-NRS) used to assess joint pain intensity while experiencing a gout flare on a scale from 0 (no pain) to 10 (worst possible pain)."}, "[4]": {"tested_on": "mouse peritoneal macrophages", "assay": "MSU crystal-induced cytokine release from mouse peritoneal macrophages", "method": "Male C57/BL/6 mice were injected intraperitoneally with 4% thioglycollate solution and the macrophages collected by peritoneal lavage 3 days later.^57 The cells were plated at a density of 7×10^5 cells in 12-well dishes and non-adherent cells were removed after 3 hours. The cells were cultured in RPMI containing 10% FCS, sodium pyruvate, penicillin/streptomycin and L-glutamine. […] The concentration of IL-1β in the supernatant was determined with an R&D systems Quantikine mouse immunoassay."}, "[5]": {"tested_on": "THP-1 cells", "settings": "THP-1 cells stimulated with lipopolysaccharide; cited from earlier work"}, "[6]": {"tested_on": "patients", "settings": "febuxostat 80 mg/day; cited from earlier work"}},
  "data": [
    {"smiles": "Oc1ncnc2[nH]ncc12", "note": "[allopurinol]", "values": [
      {"measurement": "effect on serum urate", "setting": "[1]; allopurinol 5 mg/kg/day, 7 days, to a level below normal baseline", "value": "highly significant (p<0.001) drop in serum urate"},
      {"measurement": "effect on urinary uric acid", "setting": "[1]; allopurinol 5 mg/kg/day, level still below normal baseline", "value": "highly significant (p<0.001) increase in urinary uric acid"}
    ]},
    {"smiles": "CC(C)(S)C(=O)N[C@@H](CS)C(=O)O", "note": "[bucillamine, N-(2-mercapto-2-methylpropionyl)-L-cysteine]", "values": [
      {"measurement": "release of IL-1β and IL-6 into the peritoneal cavity", "setting": "[2]; after injection of monosodium urate crystals, mouse", "value": "attenuated"},
      {"measurement": "effect of addition of bucillamine on average neutrophil influx", "setting": "[2]; bucillamine 10 μmol/kg added to colchicine, MSU crystals i.p., 6 hours", "value": "highly significant (p<0.001) decrease in average neutrophil influx"},
      {"measurement": "decrease of mean neutrophil influx for every increase of 1 μmol/kg of the drug", "setting": "[2]; 6 hours", "value": 5.15, "unit": "%"},
      {"measurement": "proportion of subjects with ≧50% reduction in target joint pain score from baseline at 72 hours post-dose", "setting": "[3]; Arm A, 900 mg, 2/8 subjects", "value": 25, "unit": "%"},
      {"measurement": "proportion of subjects with ≧50% reduction in target joint pain score from baseline at 72 hours post-dose", "setting": "[3]; Arm B, 1,800 mg, 6/9 subjects", "value": 67, "unit": "%"},
      {"measurement": "use of rescue medication", "setting": "[3]; Arm B, 1,800 mg, all subjects, seven-day treatment period", "value": "completed the treatment period without the use of rescue medication"},
      {"measurement": "decrease in average IL-1β cytokine production with each additional 1 μmol/kg increase", "setting": "[4]; MSU crystals 50 μg/mL, 6 hours", "value": 30.7, "unit": "pg/mL"},
      {"measurement": "decrease in average IL-6 cytokine production with each additional 1 μmol/kg increase", "setting": "[4]; MSU crystals 50 μg/mL, 6 hours", "value": 13.7, "unit": "pg/mL"},
      {"measurement": "decrease in average MSU crystal-induced IL-1β production", "setting": "[4]; addition of bucillamine 10 μmol/kg to colchicine", "value": 65.0, "unit": "%"},
      {"measurement": "increase of mean urinary uric acid for each increase of 1 mg/kg/day", "setting": "[1]; bucillamine alone, 7 days, dose-response slope", "value": 0.079, "unit": "mg/dL"},
      {"measurement": "reduction of mean serum urate for each increase of 1 mg/kg/day", "setting": "[1]; bucillamine alone, gastric gavage, 7 days, dose-response slope", "value": 0.0067, "unit": "mg/dL"},
      {"measurement": "release of TNF-α, IL-1β and IL-8", "setting": "[5]", "value": "attenuated"}
    ]},
    {"smiles": "COc1cc2c(c(OC)c1OC)-c1ccc(OC)c(=O)cc1[C@@H](NC(C)=O)CC2", "note": "[colchicine]", "values": [
      {"measurement": "decrease of mean neutrophil influx for every increase of 1 μmol/kg of the drug", "setting": "[2]; 6 hours", "value": 18.3, "unit": "%"},
      {"measurement": "proportion of subjects with ≧50% reduction in target joint pain score from baseline at 72 hours post-dose", "setting": "[3]; Arm C, 1.8 mg, 5/12 subjects", "value": 42, "unit": "%"},
      {"measurement": "related serious adverse events", "setting": "[3]; any of the treatment arms, seven-day treatment period", "value": "No related serious adverse events"},
      {"measurement": "decrease of average MSU crystal-induced IL-1β production for every increase of 1 μmol/kg", "setting": "[4]; colchicine alone, logarithmic model", "value": 29.6, "unit": "%"}
    ]},
    {"smiles": "Cc1nc(-c2ccc(OCC(C)C)c(C#N)c2)sc1C(=O)O", "note": "[febuxostat]", "values": [
      {"measurement": "patients who previously failed to normalise uric acid levels (<360 μmol/L) on allopurinol and also failed", "setting": "[6]", "value": 59, "unit": "%"}
    ]}
  ]
}
